Measured values as given in patent US8741836B2, “Polypeptides” (Novo Nordisk A/S, priority 2011, dated 2014).
Starred links: 1 amine or outer side, 2 acyl side, 3 side chain; linkers in the order of their positions; H or OH if unused. Positions of bridges follow the written chain, without caps; N, C: chain ends. Residues, ends and D or L forms follow the SMILES beside them. Groups on a side chain read outwards from the residue. *: point of attachment. C20 diacid = O=C(O)CCCCCCCCCCCCCCCCCCC(=O)*; C18 diacid = O=C(O)CCCCCCCCCCCCCCCCC(=O)*; γGlu = O=C(O)[C@H](CCC(=O)[*:2])N[*:1]; AEEA = NCCOCCOCC(=O)O

experiment: Assay (III) ThT fibrillation assay for physical stability; assay type: physicochemical; conditions: pH 4.0
Summary of the method: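 Freshly prepared, pH-adjusted formulations with 1 μM ThT incubated at 37 °C under 960 rpm orbital shaking (1 mm), fluorescence (ex 444, em 485 nm) read every 20 min. […] Peptide content before and after measured by reverse-phase HPLC against pramlintide standard.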

ThT pH 4.0 lag time (physical stability in fibrillogenesis assay) [h]	Structure (SMILES)
>45	CC[C@H](C)[C@H](NC(=O)[C@@H]1CCCN1C(=O)CNC(=O)[C@H](Cc1ccccc1)NC(=O)[C@H](CC(N)=O)NC(=O)[C@H](CO)NC(=O)[C@H](CO)NC(=O)[C@H](CO)NC(=O)[C@H](Cc1c[nH]cn1)NC(=O)[C@H](CCCCNC(=O)COCCOCCNC(=O)COCCOCCNC(=O)CC[C@H](NC(=O)CCCCCCCCCCCCCCCCC(=O)O)C(=O)O)NC(=O)[C@H](CC(C)C)NC(=O)[C@H](Cc1ccccc1)NC(=O)[C@H](CCC(=O)O)NC(=O)[C@H](C)NC(=O)[C@H](CC(C)C)NC(=O)[C@H](CCCNC(=N)N)NC(=O)[C@H](CCC(N)=O)NC(=O)[C@@H](NC(=O)[C@H](C)NC(=O)[C@@H]1CSSC[C@H](NC(=O)[C@@H](N)CCCCN)C(=O)N[C@@H](CC(N)=O)C(=O)N[C@@H]([C@@H](C)O)C(=O)N[C@@H](C)C(=O)N[C@@H]([C@@H](C)O)C(=O)N1)[C@@H](C)O)C(=O)N[C@@H](CC(C)C)C(=O)N1CCC[C@H]1C(=O)N1CCC[C@H]1C(=O)N[C@H](C(=O)N[C@@H](CC(N)=O)C(=O)N[C@H](C(=O)NCC(=O)N[C@@H](CO)C(=O)N[C@@H](CCC(=O)O)C(=O)N[C@H](C(=O)N[C@@H](Cc1ccc(O)cc1)C(N)=O)[C@@H](C)O)C(C)C)[C@@H](C)O [Example 83, N-epsilon17-[2-(2-{2-[2-(2-{2-[(S)-4-Carboxy-4-(17-carboxyheptadecanoylamino)butyrylamino]ethoxy}ethoxy)acetylamino]ethoxy}ethoxy)acetyl]-[Glu14,Lys17,Ser21,Glu35]-pramlintide] (H-KCNTATCATQRLAEFLK([AEEA-AEEA-γGlu-C18 diacid])HSSSNFGPILPPTNVGSETY-NH2; disulfide 2-7 (inferred); N-terminus assumed)

same assay, conditions: pH 4.0, ThT fibrillation assay

ThT pH 4.0 lag time [h]	Structure (SMILES)
28	CC[C@H](C)[C@H](NC(=O)[C@@H]1CCCN1C(=O)CNC(=O)[C@H](Cc1ccccc1)NC(=O)[C@H](CC(N)=O)NC(=O)[C@H](CC(N)=O)NC(=O)[C@H](CO)NC(=O)[C@H](CO)NC(=O)[C@H](Cc1c[nH]cn1)NC(=O)[C@H](Cc1c[nH]cn1)NC(=O)[C@H](CC(C)C)NC(=O)[C@H](Cc1ccccc1)NC(=O)[C@H](CCC(=O)O)NC(=O)[C@H](C)NC(=O)[C@H](CC(C)C)NC(=O)[C@H](CCCNC(=N)N)NC(=O)[C@H](CCC(N)=O)NC(=O)[C@@H](NC(=O)[C@H](C)NC(=O)[C@@H]1CSSC[C@H](NC(=O)CC[C@H](NC(=O)CCCCCCCCCCCCCCCCCCC(=O)O)C(=O)O)C(=O)N[C@@H](CC(N)=O)C(=O)N[C@@H]([C@@H](C)O)C(=O)N[C@@H](C)C(=O)N[C@@H]([C@@H](C)O)C(=O)N1)[C@@H](C)O)C(=O)N[C@@H](CC(C)C)C(=O)N1CCC[C@H]1C(=O)N1CCC[C@H]1C(=O)N[C@H](C(=O)N[C@@H](CC(N)=O)C(=O)N[C@H](C(=O)NCC(=O)N[C@@H](CO)C(=O)N[C@@H](Cc1c[nH]cn1)C(=O)N[C@H](C(=O)N[C@@H](Cc1ccc(O)cc1)C(N)=O)[C@@H](C)O)C(C)C)[C@@H](C)O [Example 75, N-alpha-[(S)-4-Carboxy-4-(19-carboxynonadecanoylamino)butyryl]-[des1,Glu14,His17,His35]-pramlintide] ({C20 diacid-γGlu}-CNTATCATQRLAEFLHHSSNNFGPILPPTNVGSHTY-NH2; disulfide 1-6)
>45	CC[C@H](C)[C@H](NC(=O)[C@@H]1CCCN1C(=O)CNC(=O)[C@H](Cc1ccccc1)NC(=O)[C@H](CC(N)=O)NC(=O)[C@H](CC(N)=O)NC(=O)[C@H](CO)NC(=O)[C@H](CO)NC(=O)[C@H](Cc1c[nH]cn1)NC(=O)[C@H](Cc1c[nH]cn1)NC(=O)[C@H](CC(C)C)NC(=O)[C@H](Cc1ccccc1)NC(=O)[C@H](CCC(=O)O)NC(=O)[C@H](C)NC(=O)[C@H](CC(C)C)NC(=O)[C@H](CCCNC(=N)N)NC(=O)[C@H](CCC(N)=O)NC(=O)[C@@H](NC(=O)[C@H](C)NC(=O)[C@@H]1CSSC[C@H](NC(=O)[C@H](Cc2c[nH]cn2)NC(=O)CC[C@H](NC(=O)CCCCCCCCCCCCCCCCCCC(=O)O)C(=O)O)C(=O)N[C@@H](CC(N)=O)C(=O)N[C@@H]([C@@H](C)O)C(=O)N[C@@H](C)C(=O)N[C@@H]([C@@H](C)O)C(=O)N1)[C@@H](C)O)C(=O)N[C@@H](CC(C)C)C(=O)N1CCC[C@H]1C(=O)N1CCC[C@H]1C(=O)N[C@H](C(=O)N[C@@H](CC(N)=O)C(=O)N[C@H](C(=O)NCC(=O)N[C@@H](CO)C(=O)N[C@@H](Cc1c[nH]cn1)C(=O)N[C@H](C(=O)N[C@@H](Cc1ccc(O)cc1)C(N)=O)[C@@H](C)O)C(C)C)[C@@H](C)O [Example 76, N-alpha-[(S)-4-Carboxy-4-(19-carboxynonadecanoylamino)butyryl]-[His1,Glu14,His17,His35]-pramlintide] ({C20 diacid-γGlu}-HCNTATCATQRLAEFLHHSSNNFGPILPPTNVGSHTY-NH2; disulfide 2-7)
>45	CC[C@H](C)[C@H](NC(=O)[C@@H]1CCCN1C(=O)CNC(=O)[C@H](Cc1ccccc1)NC(=O)[C@H](CC(N)=O)NC(=O)[C@H](CC(N)=O)NC(=O)[C@H](CO)NC(=O)[C@H](CO)NC(=O)[C@H](CCCNC(=N)N)NC(=O)[C@H](Cc1c[nH]cn1)NC(=O)[C@H](CC(C)C)NC(=O)[C@H](Cc1ccccc1)NC(=O)[C@H](CCC(=O)O)NC(=O)[C@H](C)NC(=O)[C@H](CC(C)C)NC(=O)[C@H](CCCNC(=N)N)NC(=O)[C@H](CCC(N)=O)NC(=O)[C@@H](NC(=O)[C@H](C)NC(=O)[C@@H]1CSSC[C@H](NC(=O)[C@H](Cc2c[nH]cn2)NC(=O)CC[C@H](NC(=O)CCCCCCCCCCCCCCCCCCC(=O)O)C(=O)O)C(=O)N[C@@H](CC(N)=O)C(=O)N[C@@H]([C@@H](C)O)C(=O)N[C@@H](C)C(=O)N[C@@H]([C@@H](C)O)C(=O)N1)[C@@H](C)O)C(=O)N[C@@H](CC(C)C)C(=O)N1CCC[C@H]1C(=O)N1CCC[C@H]1C(=O)N[C@H](C(=O)N[C@@H](CC(N)=O)C(=O)N[C@H](C(=O)NCC(=O)N[C@@H](CO)C(=O)N[C@@H](Cc1c[nH]cn1)C(=O)N[C@H](C(=O)N[C@@H](Cc1ccc(O)cc1)C(N)=O)[C@@H](C)O)C(C)C)[C@@H](C)O [Example 77, N-alpha-[(S)-4-Carboxy-4-(19-carboxynonadecanoylamino)butyryl]-[His1,Glu14,His17,Arg18,His35]-pramlintide] ({C20 diacid-γGlu}-HCNTATCATQRLAEFLHRSSNNFGPILPPTNVGSHTY-NH2; disulfide 2-7 (inferred))
>45	CC[C@H](C)[C@H](NC(=O)[C@@H]1CCCN1C(=O)CNC(=O)[C@H](Cc1ccccc1)NC(=O)[C@H](CC(N)=O)NC(=O)[C@H](CC(N)=O)NC(=O)[C@H](CO)NC(=O)[C@H](CO)NC(=O)[C@H](CCCNC(=N)N)NC(=O)[C@H](Cc1c[nH]cn1)NC(=O)[C@H](CC(C)C)NC(=O)[C@H](Cc1ccccc1)NC(=O)[C@H](CCC(=O)O)NC(=O)[C@H](C)NC(=O)[C@H](CC(C)C)NC(=O)[C@H](CCCNC(=N)N)NC(=O)[C@H](CCC(N)=O)NC(=O)[C@@H](NC(=O)[C@H](C)NC(=O)[C@@H]1CSSC[C@H](NC(=O)[C@H](CCCCN)NC(=O)CC[C@H](NC(=O)CCCCCCCCCCCCCCCCCCC(=O)O)C(=O)O)C(=O)N[C@@H](CC(N)=O)C(=O)N[C@@H]([C@@H](C)O)C(=O)N[C@@H](C)C(=O)N[C@@H]([C@@H](C)O)C(=O)N1)[C@@H](C)O)C(=O)N[C@@H](CC(C)C)C(=O)N1CCC[C@H]1C(=O)N1CCC[C@H]1C(=O)N[C@H](C(=O)N[C@@H](CC(N)=O)C(=O)N[C@H](C(=O)NCC(=O)N[C@@H](CO)C(=O)N[C@@H](Cc1c[nH]cn1)C(=O)N[C@H](C(=O)N[C@@H](Cc1ccc(O)cc1)C(N)=O)[C@@H](C)O)C(C)C)[C@@H](C)O [Example 78, N-alpha-[(S)-4-Carboxy-4-(19-carboxynonadecanoylamino)butyryl]-[Glu14,His17,Arg18,His35]-pramlintide] ({C20 diacid-γGlu}-KCNTATCATQRLAEFLHRSSNNFGPILPPTNVGSHTY-NH2; disulfide 2-7 (inferred))
>45	CC[C@H](C)[C@H](NC(=O)[C@@H]1CCCN1C(=O)CNC(=O)[C@H](Cc1ccccc1)NC(=O)[C@H](CC(N)=O)NC(=O)[C@H](CO)NC(=O)[C@H](CO)NC(=O)[C@H](CO)NC(=O)[C@H](Cc1c[nH]cn1)NC(=O)[C@H](CCCCNC(=O)COCCOCCNC(=O)COCCOCCNC(=O)CC[C@H](NC(=O)CCCCCCCCCCCCCCCCC(=O)O)C(=O)O)NC(=O)[C@H](CC(C)C)NC(=O)[C@H](Cc1ccccc1)NC(=O)[C@H](CCC(=O)O)NC(=O)[C@H](C)NC(=O)[C@H](CC(C)C)NC(=O)[C@H](CCCNC(=N)N)NC(=O)[C@H](CCC(N)=O)NC(=O)[C@@H](NC(=O)[C@H](C)NC(=O)[C@@H]1CSSC[C@H](NC(=O)[C@@H](N)CCCCN)C(=O)N[C@@H](CC(N)=O)C(=O)N[C@@H]([C@@H](C)O)C(=O)N[C@@H](C)C(=O)N[C@@H]([C@@H](C)O)C(=O)N1)[C@@H](C)O)C(=O)N[C@@H](CC(C)C)C(=O)N1CCC[C@H]1C(=O)N1CCC[C@H]1C(=O)N[C@H](C(=O)N[C@@H](CC(N)=O)C(=O)N[C@H](C(=O)NCC(=O)N[C@@H](CO)C(=O)N[C@@H](CCC(=O)O)C(=O)N[C@H](C(=O)N[C@@H](Cc1ccc(O)cc1)C(N)=O)[C@@H](C)O)C(C)C)[C@@H](C)O [Example 83, N-epsilon17-[2-(2-{2-[2-(2-{2-[(S)-4-Carboxy-4-(17-carboxyheptadecanoylamino)butyrylamino]ethoxy}ethoxy)acetylamino]ethoxy}ethoxy)acetyl]-[Glu14,Lys17,Ser21,Glu35]-pramlintide] (H-KCNTATCATQRLAEFLK([AEEA-AEEA-γGlu-C18 diacid])HSSSNFGPILPPTNVGSETY-NH2; disulfide 2-7 (inferred); N-terminus assumed)
>45	CC[C@H](C)[C@H](NC(=O)[C@@H]1CCCN1C(=O)CNC(=O)[C@H](Cc1ccccc1)NC(=O)[C@H](CC(N)=O)NC(=O)[C@H](CC(N)=O)NC(=O)[C@H](CO)NC(=O)[C@H](CO)NC(=O)[C@H](Cc1c[nH]cn1)NC(=O)[C@H](Cc1c[nH]cn1)NC(=O)[C@H](CC(C)C)NC(=O)[C@H](Cc1ccccc1)NC(=O)[C@H](CCC(=O)O)NC(=O)[C@H](C)NC(=O)[C@H](CC(C)C)NC(=O)[C@H](CCCNC(=N)N)NC(=O)[C@H](CCC(N)=O)NC(=O)[C@@H](NC(=O)[C@H](C)NC(=O)[C@@H]1CSSC[C@H](NC(=O)[C@H](CCCCN)NC(=O)[C@H](CO)NC(=O)CC[C@H](NC(=O)CCCCCCCCCCCCCCCCCCC(=O)O)C(=O)O)C(=O)N[C@@H](CC(N)=O)C(=O)N[C@@H]([C@@H](C)O)C(=O)N[C@@H](C)C(=O)N[C@@H]([C@@H](C)O)C(=O)N1)[C@@H](C)O)C(=O)N[C@@H](CC(C)C)C(=O)N1CCC[C@H]1C(=O)N1CCC[C@H]1C(=O)N[C@H](C(=O)N[C@@H](CC(N)=O)C(=O)N[C@H](C(=O)NCC(=O)N[C@@H](CO)C(=O)N[C@@H](Cc1c[nH]cn1)C(=O)N[C@H](C(=O)N[C@@H](Cc1ccc(O)cc1)C(N)=O)[C@@H](C)O)C(C)C)[C@@H](C)O [Example 85, N-alpha-[(S)-4-Carboxy-4-(19-carboxynonadecanoylamino)butyryl]-Ser-[Glu14,His17,His35]-pramlintide] ({C20 diacid-γGlu}-SKCNTATCATQRLAEFLHHSSNNFGPILPPTNVGSHTY-NH2; disulfide 3-8)
